Experimental data from patent US4590193A, “3-(2-(4-phenylpiperazinylethyl)anilino)-isobenzofuranones, their method of preparation and their use as antihypertensive and antiallergic drugs” (Societe Cortial, S.A., priority 1982, dated 1986).

Tests used:
[1] = Oral toxicity (mortality), intragastric administration; conditions: mouse, in vivo, read-out: percentage of mortality
Description: (§1) The mortality induced by these substances was determined by using Swiss mice which were free of specific pathogenic organisms. The animals were kept in an air conditioned room for 24 to 48 hours prior to the beginning of the experiments. The substances were solubilized in Tween and administered either intragastrically or intraperitoneally.

[2] = Intraperitoneal toxicity (mortality, LD50); conditions: mouse, in vivo, ip; for mortality: read-out: percentage of mortality; for LD50: Bliss method
Description: as §1

[3] = target: T1, contractions induced by histamine on a guinea pig ileum (Cavia porcellus, UniProt P31389); assay: In vitro antihistamine activity: inhibition of histamine-induced contractions of guinea pig ileum; format: cell-based; conditions: for Kb: competitive antagonism of histamine, read-out: pA2 (converted); for IC50: histamine 10^-8 g/l
T1 construct: on a guinea pig ileum; from tissue; host or cells: isolated guinea pig ileum
Description: The antagonist is administered at the same time as the agonist or before. In the latter case, the time of contact between the antagonist and the organ isolated before the introduction of the agonist is shown in Table III.

[4] = tested on: contractions induced by serotonin on an isolated guinea pig ileum; assay: In vitro antiserotonin activity: inhibition of serotonin-induced contractions of isolated guinea pig ileum; format: cell-based; conditions: Cavia porcellus, serotonin 5.10^-7 g/ml
[5] = tested on: bronchospasm induced by a 0.3% histamine aerosol; assay: In vivo antihistamine activity: bronchospasm induced by histamine aerosol in awake guinea pig; conditions: 10 mg/kg oral in Tween
Description: The in vivo antihistamine activity is determined in the awake guinea pig by testing the bronchospasm induced by a 0.3% histamine aerosol. The antihistaminic activity of the present products is tested upon their oral administration in Tween.

[6] = tested on: cutaneous passive anaphylaxis; assay: Antiallergic activity: cutaneous passive anaphylaxis; format: in vivo, Sprague Dawley rats; conditions: po; per os, rat, reduction of Evans blue diffused
Description: The antiallergic activity has been determined in Sprague Dawley rats by the test for cutaneous passive anaphylaxis. Anaphylaxis is induced by the intradermal administration of a serum rich in IgE, followed 24 hours later by the intravenous injection of a solution containing ovalbumin and Evans blue. The activity of the products to be tested, administered per os, is estimated as the percentage of reduction in the amount of Evans blue having diffused at the injection point. Table VI provides the ED50 expressed in mg/kg of certain products of this invention.

[7] = tested on: cutaneous reactions induced by histamine; assay: Cutaneous reactions induced by histamine; format: in vivo, rats; conditions: oral, rat
Description: (§2) The products of this invention were administered orally to rats in the model of the cutaneous reactions. These reactions were induced by intradermal administration of histamine, serotonin, or the 48/80 compound. The activity of these products is expressed as the percentage of reduction in the amount of blue dye having diffused at the injection point, and the obtained values for ED50 expressed in mg/kg are given in Table VI.

[8] = tested on: cutaneous reactions induced by serotonin; assay: Cutaneous reactions induced by serotonin; format: in vivo, rats; conditions: oral, rat
Description: as §2

[9] = tested on: cutaneous reactions induced by the 48/80 compound; assay: Cutaneous reactions induced by 48/80 compound; format: in vivo, rats; conditions: oral, rat
Description: as §2

[10] = tested on: spontaneously hypertensive awake rat; assay: Antihypertensive activity in spontaneously hypertensive awake rat, oral; format: in vivo
Description: In the spontaneously hypertensive awake rat the compound COR 34 41 causes a drop in AP of 18.8% at 25 mg/kg per os, and it causes a drop in AP of 19.3% at 50 mg/kg. The AP returns to normal at the end of an hour, at a dosage of 25 mg/kg, and at the end of 5 hours with a dosage of 50 mg/kg.
The compound COR 34 42 causes a AP drop of 15.6% at a dose of 50 mg/kg per os. The AP returns to normal at the end of 5 hours.

[11] = tested on: spontaneously hypertensive rats; assay: Antihypertensive activity in spontaneously hypertensive rats, repeated oral administration; format: in vivo, rat; conditions: 50 mg/kg orally every 12 hours for five days
Description: (§3) When administered orally to spontaneously hypertensive rats at a rate of 50 mg/kg every 12 hours for five days, COR 34 41 causes a drop in the AP. The AP becomes stable at the end of the treatment, at a value of about 18 mm Hg below its initial value. The effect on motility when giving the present substances orally to mice, was tested by using an actimeter.

motility = assay: Effect on motility in mice (actimeter), sedative; format: in vivo; conditions: Mus musculus, oral, read-out: ED50 as a sedative (motility)
Description: as §3

Swiss mice = conditions: 14 days of observation; 20 wt. % "Tween" solution; range of lethal doses 946-1459; cited from earlier work
[12] = no time of contact printed (antagonist given at the same time as agonist)

T1 sequence (P31389 whole entry): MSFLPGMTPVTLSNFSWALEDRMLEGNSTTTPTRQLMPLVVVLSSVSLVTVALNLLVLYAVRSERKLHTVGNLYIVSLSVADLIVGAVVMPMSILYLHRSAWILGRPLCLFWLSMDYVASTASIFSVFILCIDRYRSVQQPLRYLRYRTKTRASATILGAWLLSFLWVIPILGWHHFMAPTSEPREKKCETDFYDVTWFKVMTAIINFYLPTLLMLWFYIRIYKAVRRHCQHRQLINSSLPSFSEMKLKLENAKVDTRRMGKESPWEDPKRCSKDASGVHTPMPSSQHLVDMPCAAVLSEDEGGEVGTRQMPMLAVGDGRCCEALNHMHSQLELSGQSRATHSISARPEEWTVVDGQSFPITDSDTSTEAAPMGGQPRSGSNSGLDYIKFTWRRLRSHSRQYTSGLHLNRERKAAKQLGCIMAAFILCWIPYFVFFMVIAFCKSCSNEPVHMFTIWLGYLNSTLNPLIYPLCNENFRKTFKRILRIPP

Row | Compound | mortality ([1]; 1000 mg/kg) [%] | mortality ([1]; 2000 mg/kg) [%] | mortality ([2]; 500 mg/kg) [%] | mortality ([2]; 1000 mg/kg) [%] | Kb [3] [nM] | % of animals protected at 1 h [5] [%] | % of animals protected at 6 h [5] [%] | ED50 [6] [mg/kg] | ED50 [7] [mg/kg] | ED50 [8] [mg/kg] | ED50 [9] [mg/kg] | ED50 (motility) [mg/kg] | also measured
1 | COc1ccccc1N1CCN(CCc2ccccc2NC2OC(=O)c3ccccc32)CC1 (stereo not drawn) [COR 34 41] | 10 | 10 | 25 | 70 | 9.33 | 90 | 60 | 4.1 | 7.9 | 14 | 10.9 | – | mortality ([1]; 750 mg/kg): 0%; mortality ([2]; 400 mg/kg): 0%; mortality ([2]; 800 mg/kg): 35%; mortality ([2]; 900 mg/kg): 50%; LD50 [2]: 873 mg/kg; IC50 ([3]; time of contact 10 mm): 31.1 nM; IC50 ([4]; time of contact 15 mm): 12600 nM; AP returns to normal at the end of ([10]; 25 mg/kg per os): an hour; drop in AP ([10]; 25 mg/kg per os): 18.8%; AP returns to normal at the end of ([10]; 50 mg/kg per os): 5 h; drop in AP ([10]; 50 mg/kg per os): 19.3%; AP below its initial value at the end of the treatment [11]: about 18 mm Hg
2 | Cc1ccccc1N1CCN(CCc2ccccc2NC2OC(=O)c3ccccc32)CC1 (stereo not drawn) [COR 34 49, 3-(2-(4-(2-methylphenyl)piperazinylethyl)-aniline)isobenzofuranone] | 0 | 0 | 0 | 20 | – | 30 | 20 | – | – | – | – | 18 | IC50 ([3]; time of contact 10 mm): 80 nM
3 | O=C1OC(Nc2ccccc2CCN2CCN(c3ccc(F)cc3)CC2)c2ccccc21 (stereo not drawn) [COR 34 37, 3-(2-(4-fluorophenylpiperazinylethyl)anilino)isobenzofuranone] | 10 | 50 | 20 | 60 | 13.8 | 70 | 70 | 6.4 | 9.3 | 7.9 | 9.4 | – | mortality ([1]; 750 mg/kg): 0%; IC50 ([3]; time of contact 3 mm): 15.5 nM; IC50 ([4]; time of contact 5 mm): 22700 nM
4 | O=C1OC(Nc2ccccc2CCN2CCN(c3ccccc3)CC2)c2ccccc21 (stereo not drawn) [COR 34 30, 3-(2-(4-phenylpiperazinylethyl)anilino)-isobenzofuranone] | 0 | 0 | 0 | – | 20.4 | 60 | 40 | 3.8 | 12.1 | 13.2 | 11.2 | ~50 | mortality ([1]; 3000 mg/kg): 10%; mortality ([2]; 100 mg/kg): 0%; mortality ([2]; 200 mg/kg): 10%; mortality ([2]; 300 mg/kg): 0%; IC50 [3, 12]: 1040 nM; IC50 ([4]; time of contact 5 mm): 9330 nM
5 | Nc1ccccc1CCN1CCN(c2ccccc2)CC1 [product of Example 1, 2-(4-phenylpiperazinylethyl)aniline] | – | – | – | – | – | – | – | – | – | – | – | – | LD50 (Swiss mice): 1175 mg/kg
6 | COc1ccc(N2CCN(CCc3ccccc3NC3OC(=O)c4ccccc43)CC2)cc1 (stereo not drawn) [COR 34 53, 3-(2-(4-methoxyphenylpiperazinylethyl)anilino)isobenzofuranone] | 0 | 20 | 60 | 100 | – | – | – | – | – | – | – | – | LD50 [2]: 500 mg/kg; IC50 ([3]; time of contact 5 mm): ~1500 nM
7 | COc1ccc2c(c1OC)C(=O)OC2Nc1ccccc1CCN1CCN(c2ccc(F)cc2)CC1 (stereo not drawn) [COR 34 43, 6,7-dimethoxy-3-(2-(4-p-fluorophenylpiperazinylethyl)-anilino)isobenzofuranone] | 0 | 0 | 0 | 0 | 10.7 | 90 | 50 | 6.6 | 9.1 | 17.1 | 11.1 | – | mortality ([2]; 800 mg/kg): 0%; IC50 [3, 12]: 3530 nM; IC50 ([4]; time of contact 3 mm): 20500 nM
8 | COc1ccc2c(c1OC)C(=O)OC2Nc1ccccc1CCN1CCN(c2ccccc2C)CC1 (stereo not drawn) [COR 34 48] | 0 | 0 | 0 | 0 | – | 40 | 10 | – | – | – | – | 9 | IC50 ([3]; time of contact 5 mm): 55 nM; IC50 ([4]; time of contact 5 mm): 6460 nM
9 | CC(CN1c2ccccc2Sc2ccccc21)N(C)C (stereo not drawn) [Promethazine, reference compound] | – | – | – | – | – | – | – | – | – | – | – | – | IC50 ([4]; time of contact 3 mm): 444 nM
10 | COc1ccc2c(c1OC)C(=O)OC2Nc1ccccc1CCN1CCN(c2ccccc2)CC1 (stereo not drawn) [COR 34 47, 6,7-dimethoxy-3-(2-(4-phenylpiperazinylethyl)anilino)isobenzofuranone] | 0 | 0 | 0 | 0 | – | 20 | 0 | – | – | – | – | – | IC50 ([3]; time of contact 3 mm): 29 nM; IC50 ([4]; time of contact 3 mm): 19700 nM
11 | COc1ccc2c(c1OC)C(=O)OC2Nc1ccccc1CCN1CCN(c2ccc(Cl)cc2)CC1 (stereo not drawn) [COR 34 42, 3-(2-(4-p-chlorophenylpiperazinylethyl)-aniline)-6,7-dimethoxyisobenzofuranone] | 0 | 0 | – | – | – | – | – | 14.8 | – | – | – | 10 | IC50 ([3]; time of contact 5 mm): 33 nM; AP returns to normal at the end of ([10]; 50 mg/kg per os): 5 h; drop in AP ([10]; 50 mg/kg per os): 15.6%
